Reference: patent US20110152079A1, “Pesticidal Compound Mixtures” (BAYER CROPSCIENCE AG, priority 2009, published 2011)

Experiments:
Type in all cases: in vivo
Myzus persicae = Myzus persicae - Test (sprayed cabbage leaves); conditions: single compound; for Mortality in % after 6d / mortality at 500 g/ha: 500 g/ha
Method: (§1) Solvent: 78 parts by weight of acetone • • 1.5 parts by weight of dimethylformamide Emulsifier: 0.5 parts by weight of alkylaryl polyglycole-ether
(§2) To produce a suitable preparation of active compound, 1 part by weight of active compound is mixed with the stated amount of solvent and emulsifier, and the concentrate is diluted with emulsifier-containing water to the desired concentration.
Cabbage leaves (Brassica oleracea) which are heavily infested by the green peach aphid (Myzus persicae) are treated by being sprayed with the preparation of the active compound at the desired concentration. After the specified period of time, the mortality in % is determined 100% means that all the aphids have been killed; 0% means that none of the aphids have been killed.

Phaedon cochleariae = Phaedon cochleariae Larven - Test (sprayed cabbage leaves); conditions: 144 h, single compound, 6 d, read-out: Mortality in % after 6d
Method: as §1, §2
Cabbage leaves (Brassica oleracea) are treated by being sprayed with the preparation of the active compound at the desired concentration and are infested with larvae of the mustard beetle (Phaedon cochleariae) as long as the leaves are still moist.
After the specified period of time, the mortality in % is determined 100% means that all the beetle larvae have been killed; 0% means that none of the beetle larvae have been killed.

Spodoptera frugiperda = Spodoptera frugiperda - Test (sprayed cabbage leaves); conditions: 500 g/ha, single compound
Method: as §1, §2
Cabbage leaves (Brassica oleracea) are treated by being sprayed with the preparation of the active compound at the desired concentration and are infested with larvae of the fall army worm (Spodoptera frugiperda) as long as the leaves are still moist.
After the specified period of time, the mortality in % is determined 100% means that all the caterpillars have been killed; 0% means that none of the caterpillars have been killed.

Tetranychus urticae = Tetranychus urticae - Test (OP-resistant, bean plants); conditions: 144 h, single compound, 6 d, read-out: Mortality in % after 6d
Method: as §1, §2
Bean plants (Phaseolus vulgaris) which are heavily infested with all stages of the two-spotted spider mite (Tetranychus urticae) are treated by being sprayed with the preparation of the active compound at the desired concentration.
After the specified period of time, mortality in % is determined 100% means that all the spider mites have been killed; 0% means that none of the spider mites have been killed.

[1] = Myzus persicae, 144 h, 6 d, read-out: Mortality in % after 6d

SMILES: CCO[PH](=O)O [Fosetyl AL]
- Mortality in % after 6d (Myzus persicae): 0%

SMILES: CCCN(CCOc1c(Cl)cc(Cl)cc1Cl)C(=O)n1ccnc1 [Prochloraz]
- mortality at 500 g/ha (Myzus persicae; [1]): 0%

SMILES: CN(C)C(=S)SSC(=S)N(C)C [Thiram]
- mortality at 500 g/ha (Myzus persicae; [1]): 0%

SMILES: COC(=O)C(C)N(C(=O)Cc1ccccc1)c1c(C)cccc1C (stereo not shown) [Benalaxyl]
- mortality at 500 g/ha (Myzus persicae; [1]): 0%

SMILES: COCC(=O)N(c1c(C)cccc1C)C(C)C(=O)OC (stereo not shown) [Metalaxyl]
- mortality at 500 g/ha (Phaedon cochleariae; 500 g/ha): 0%

SMILES: N#Cc1ccccc1NC(=O)c1snc(Cl)c1Cl [Isotianil]
- Mortality in % after 6d (Spodoptera frugiperda): 0%

SMILES: Cc1ccc(N(SC(F)(Cl)Cl)S(=O)(=O)N(C)C)cc1 [Tolyfluanid]
- mortality at 500 g/ha (Tetranychus urticae): 0%

SMILES: CC1(C(=O)Nc2ccc(O)c(Cl)c2Cl)CCCCC1 [Fenhexamid]
- mortality at 500 g/ha (Myzus persicae; [1]): 0%
- mortality at 500 g/ha (Tetranychus urticae): 0%

SMILES: CC1(C)[C@H](C=C(Cl)Cl)[C@H]1C(=O)OCc1c(F)c(F)cc(F)c1F [Transfluthrin]
- mortality at 20 g/ha (Myzus persicae; Myzus persicae, 144 h, 20 g/ha, 6 d, read-out: Mortality in % after 6d): 0%
- mortality at 100 g/ha (Tetranychus urticae; 100 g/ha): 0%
- mortality at 20 g/ha (Phaedon cochleariae; 20 g/ha): 50%

SMILES: O=C(NCc1ncc(C(F)(F)F)cc1Cl)c1c(Cl)cccc1Cl [Fluopicolide]
- Mortality in % after 6d (Myzus persicae): 0%
